Test results reported in the NIST ThermoML archive (doi:10.1016/j.jct.2015.11.010).
± gives the expanded uncertainty stated by the source.

Key:
[1] = Crystal; for mass density: 101.33 kPa, X-ray diffraction
[2] = Molar enthalpy of transition or fusion; details: Crystal; DSC
[3] = molar heat capacity at constant pressure; details: 101.33 kPa, Crystal, Small sample (50 mg) DSC
[4] = molar enthalpy of vaporization or sublimation; details: 298.15 K; Crystal; Static calorimetry

O.Sc1ncc[nH]1.Sc1ncc[nH]1 [2-mercaptoimidazole hemihydrate]
mass density ([1]; 150 K): 1489.4 ± 7.3 kg/m3

Sc1ncc[nH]1 [2-mercaptoimidazole]
mass density ([1]; 296 K): 1424.1 ± 7 kg/m3
Triple point temperature ([1]; DSC): 503.5 ± 0.8 K
Molar enthalpy of transition or fusion [2]: 4.18 ± 0.115 kcal/mol
molar heat capacity at constant pressure ([3]; 298.15 K): 112 ± 7.7 J/K/mol
molar heat capacity at constant pressure ([3]; 303.15 K): 112.4 ± 7.9 J/K/mol
molar heat capacity at constant pressure ([3]; 308.15 K): 112.9 ± 7.9 J/K/mol
molar heat capacity at constant pressure ([3]; 313.15 K): 112.6 ± 8.9 J/K/mol
molar heat capacity at constant pressure ([3]; 318.15 K): 113.4 ± 8.6 J/K/mol
molar heat capacity at constant pressure ([3]; 323.15 K): 114.3 ± 8.6 J/K/mol
molar heat capacity at constant pressure ([3]; 328.15 K): 115.3 ± 8.6 J/K/mol
molar heat capacity at constant pressure ([3]; 333.15 K): 116.5 ± 8.6 J/K/mol
molar enthalpy [4]: 27.3 ± 0.335 kcal/mol
